ChEMBL document CHEMBL2401684, “Synthesis and evaluation of a conditionally-silent agonist for the α7 nicotinic acetylcholine receptor” (Bioorg Med Chem Lett, 2013)
Calls of active or inactive are those of the source. The calls are words filed in the database; no cut-off is given here.

Key:
[1] = molecular target: T1, Neuronal acetylcholine receptor subunit alpha-7 (Homo sapiens, UniProt P36544); assay: Silent agonist activity at human alpha7 nAChR expressed in Xenopus laevis oocytes assessed as induction of PNU-120596-stimulated peak current at 100 uM; format: cell-based; conditions: Oocyte
[2] = molecular target: T1, Neuronal acetylcholine receptor subunit alpha-7; assay: Silent agonist activity at human alpha7 nAChR expressed in Xenopus laevis oocytes assessed as induction of TQS-stimulated peak current; format: cell-based; conditions: Oocyte
[3] = molecular target: T1, Neuronal acetylcholine receptor subunit alpha-7; assay: Silent agonist activity at human alpha7 nAChR expressed in Xenopus laevis oocytes assessed as induction of PNU-120596-stimulated peak current in presence of methyllycaconitine; format: cell-based; conditions: Oocyte
[4] = molecular target: T1, Neuronal acetylcholine receptor subunit alpha-7; assay: Silent agonist activity at human alpha7 nAChR expressed in Xenopus laevis oocytes assessed as induction of PNU-120596-stimulated peak current; format: cell-based, Oocyte
[5] = molecular target: T1, Neuronal acetylcholine receptor subunit alpha-7; assay: Antagonist activity at human alpha7 nAChR expressed in Xenopus laevis oocytes assessed as reduction of acetylcholine-induced peak current at 100 uM; format: cell-based; conditions: Oocyte
[6] = molecular target: T1, Neuronal acetylcholine receptor subunit alpha-7; assay: Agonist activity at human alpha7 nAChR expressed in Xenopus laevis oocytes assessed as induction of peak current at 100 uM; format: cell-based; conditions: Oocyte
[7] = molecular target: Neuronal acetylcholine receptor subunit alpha-7 (Rattus norvegicus) (UniProt Q05941); assay: Agonist activity at rat alpha7 nAChR expressed in Xenopus laevis oocytes assessed as induction of acetylcholine-stimulated peak inward current by two-electrode voltage clamp assay; format: cell-based; conditions: Oocyte
[8] = molecular target: T1, Neuronal acetylcholine receptor subunit alpha-7; assay: Agonist activity at human alpha7 nAChR expressed in Xenopus laevis oocytes assessed as induction of acetylcholine-stimulated peak inward current by two-electrode voltage clamp assay; format: cell-based; conditions: Oocyte

T1 sequence (P36544 whole entry): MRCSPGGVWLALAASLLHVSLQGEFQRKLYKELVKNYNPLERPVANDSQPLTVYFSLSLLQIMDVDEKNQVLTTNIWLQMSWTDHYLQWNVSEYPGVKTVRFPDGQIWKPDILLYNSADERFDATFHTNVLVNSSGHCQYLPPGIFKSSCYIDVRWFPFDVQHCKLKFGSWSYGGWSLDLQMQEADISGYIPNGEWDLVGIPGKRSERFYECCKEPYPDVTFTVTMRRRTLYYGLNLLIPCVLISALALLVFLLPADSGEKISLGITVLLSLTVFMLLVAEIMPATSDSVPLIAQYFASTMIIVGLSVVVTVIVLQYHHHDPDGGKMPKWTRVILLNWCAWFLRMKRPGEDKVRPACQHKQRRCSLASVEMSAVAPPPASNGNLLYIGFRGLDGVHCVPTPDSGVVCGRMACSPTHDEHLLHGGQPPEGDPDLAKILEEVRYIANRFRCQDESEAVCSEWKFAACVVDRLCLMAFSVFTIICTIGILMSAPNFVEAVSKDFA
Chain of Neuronal acetylcholine receptor subunit alpha-7 (Rattus norvegicus) (Q05941 whole entry): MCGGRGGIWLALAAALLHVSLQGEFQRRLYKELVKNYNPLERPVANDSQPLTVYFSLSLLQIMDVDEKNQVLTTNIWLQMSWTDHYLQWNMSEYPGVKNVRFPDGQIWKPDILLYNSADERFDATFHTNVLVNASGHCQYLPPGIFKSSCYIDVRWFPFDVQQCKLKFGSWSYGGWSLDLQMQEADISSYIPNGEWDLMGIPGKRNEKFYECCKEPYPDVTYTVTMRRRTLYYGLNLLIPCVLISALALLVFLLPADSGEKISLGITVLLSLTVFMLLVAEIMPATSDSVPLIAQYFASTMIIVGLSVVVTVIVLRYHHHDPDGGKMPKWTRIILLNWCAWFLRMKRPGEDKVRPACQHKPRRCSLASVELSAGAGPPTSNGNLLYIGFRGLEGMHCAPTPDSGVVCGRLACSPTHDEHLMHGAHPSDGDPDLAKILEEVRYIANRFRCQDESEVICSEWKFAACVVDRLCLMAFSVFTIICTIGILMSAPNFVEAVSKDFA

SMILES | Activity [1] | Activity [2] | Activity [3] | IC50 [4] | Activity [5] | Activity [6] | Activity [7] | Activity [8]
c1ccc(-c2cncc(C3=NCCCC3)c2)cc1 | Active | Active | inactive | 41 µM | Active | inactive | – | –
O=C(c1ccc(-c2cccc(C(F)(F)F)c2)o1)N1CCN2CCC1CC2 | – | – | – | – | – | – | < 2% | < 2%
